Laboratory results reported in patent US12384756B2, “Piperidinedione derivatives” (INNOCURE THERAPEUTICS, INC., priority 2021, dated 2025).
Where two headings read alike, the source gives them in different places.

Tests used:
Type in all cases: cell-based
[1] = biological target: T1, BRD4 (Homo sapiens, UniProt O60885); experiment: BRD4 degradation by western blot in A549 cells; parameters: BRD4 expressed in cells; endogenous in cells
Procedure: The human lung cancer cell line A549 was purchased from the Korean Cell Line Bank.
5×10^5 cells were seeded for each well of the 6 well plate (SPL company), and the cells were cultured with a total of 1.5 mL of the culture medium volume. The cultured cells were treated with various concentrations (0 nM, 0.1 nM, 0.3 nM, 1 nM, 3 nM, 10 nM, 30 nM, 100 nM, 300 nM, 1000 nM, 3000 nM, 10000 nM) of PROTAC compound according to the present invention and cultured for 24 hours.
For cell lysis, a lysis buffer was added and cell lysate was obtained using a cell scraper.
Specifically, cells were treated with 70 μl of 1×RIPA buffer containing protease inhibitors. Cell lysate was collected on ice using a scraper and incubated for 30 minutes. Then, cells were centrifuged at 4° C. 15,000 rpm for 30 minutes to obtain a cell lysate.
The standard curve was obtained using BCA assay, and the protein mass in the lysate was quantified by substituting the standard curve. The mixture was incubated at 37° C. for 30 minutes using a sample solution of 1 μl and a BCA solution of 200 μl. The absorbance was measured at 562 nm. Samples were prepared by adding a sample buffer to reach 10 μg per well.
SDS-PAGE was conducted by setting a running time of 70 minutes at 110 V in a 4-15% Mini-PROTEAN TGX stain-free gel (15 wells). A transfer was conducted using a trans-blot turbo transfer system (Bio-rad). Blocking was conducted using a blocking-grade blocker (Bio-rad) for 1 hour. Then, it was washed with 1×TBS containing 0.1% tween 20, and reacted with anti-BRD4 antibody (1:3000) or anti-beta-tubulin antibody (1:3000) in bovine serum albumin as a primary antibody at 4° C. for 16 hours. After washing three times for 10 minutes with 1×TBS containing 0.1% tween 20, it was reacted with anti-rabbit antibody (1:10000) in the blotting-grade blocker as a secondary antibody at room temperature for 1 hour. Then, after washing three times for 10 minutes with 1×TBS containing 0.1% tween 20, detection was conducted with SUPERSIGNAL™ WEST PICO PLUS chemiluminescence substrate.
For result analysis, final blot data were obtained using an image analyzer (GE).
DC50^1): DC50 value is calculated by comparing band intensity with that of a sample which is not treated with a PROTAC compound as a controlled group.
DC50^2): DC50 value is calculated by comparing the band intensity relative to that of beta-tubulin with that of the controlled group.

[2] = biological target: T1, BRD4; experiment: BRD4 protein degradation by western blot in MDA-MB-231 cells; parameters: BRD4 expressed in cells; endogenous in cells; host or cells: MDA-MB-231; settings: MDA-MB-231, 24 hours; for DC50: 50% inhibition of protein expression, read-out: DC50 of BRD4-targeted PROTAC
Procedure: (§1) Human breast cancer cell line [MDA-MB-231] was cultured in RPMI medium with 10% petal bovine serum, penicillin [100 U/ml] and streptomycin [[…]]. The synthesized compound was prepared as a stock solution of 10 mM or 50 mM dissolved in DMSO [dimethyl sulfoxide], and it was sequentially diluted to treat the cell line.
To evaluate the PROTAC's degradation ability to BRD4 expressed in cells, the cells were aliquoted into a 6 well plate at a concentration of 5×10^5 cells/ml, and then the sample was treated for 24 hours. In order to conduct western blotting assay to confirm protein expression, the cell treated with the compound was treated for 30 minutes with 70 μL of RIPA buffer wherein protease inhibitor is added. Then, cell lysate was collected on ice using a scraper and centrifuged at 4° C. 15,000 rpm for 30 minutes to obtain a supernatant containing protein. Then, SDS-PAGE is conducted for 10 μg of protein per each sample, and the protein is transferred to a membrane. The protein is reacted with antibodies of anti-BRD4, anti-tubulin and anti-GAPDH at 4° C. for 16 hours, and then, reacted with secondary antibodies at room temperature for 1 hour. The protein expression is confirmed using SUPERSIGNAL™ WEST PICO PLUS chemiluminescence substrate and image analyzer. The protein expression was normalized based on the expression value of β-tublin or GAPDH. The amount of protein expression in each sample was measured in % based on the sample treated with 0.1% DMSO vehicle which was set to 100%. The amount of protein expression was quantified using the IMAGE J PROGRAM. The change in the amount of protein expression due to the treatment of compound (DC50: the concentration of compounds where the 50% inhibition of protein expression is achieved) was calculated using […] PRISM 8.0 software.

[3] = tested on: Human breast cancer cell line [MDA-MB-231]; experiment: Anti-proliferative activity (WST-8) of BRD4 targeted PROTAC in MDA-MB-231; settings: MDA-MB-231, 72 hours
Procedure: as §1
In order to observe inhibition of cell growth, cells were aliquoted into concentrations of 5,000 cells/well at 96 well plates, and then were treated with samples prepared at various concentrations for 72 hours. The cell survival was calculated by steps of adding in each well […] of water soluble tetrazolium salt (WST-8) which produces formazon in response to dehydrogenase present in the electron transport chain in mitochondria, incubating for 2 hours, measuring the absorbance at 450 nm, and calculating by GraphicPad Prism 8.0 software.

[4] = Homo sapiens, WST-8, read-out: IC50 of BRD4-targeted PROTAC (cell proliferation)
[5] = Homo sapiens, read-out: concentration at which cancer cell proliferation is effectively inhibited

| Compound | DC50 ([1]; A549, 24 hours; band intensity compared with untreated control; read-out: DC50 1)) [µM] | DC50 ([1]; A549, 24 hours; band intensity relative to beta-tubulin compared with control; read-out: DC50 2)) [µM] | BRD4 degradation (in words) [2] | DC50 [2] [µM] | IC50 [3, 4] [µM] | IC50 [3, 5] [µM] | IC50 ([3]; WST-8, read-out: IC50 of BRD4-targeted PROTAC (cell proliferation)) [µM] |
| --- | --- | --- | --- | --- | --- | --- | --- |
| Cc1sc2c(c1C)C(c1ccc(Cl)cc1)=N[C@@H](CC(=O)NCOCCOCCOCCNc1cccc3cnn(C4CCC(=O)NC4=O)c(=O)c13)c1nnc(C)n1-2 (stereo partly drawn) [Ex. 21, 2-((S)-4-(4-chlorophenyl)-2,3,9-trimethyl-6H-thieno[3,2-f][1,2,4]triazolo[4,3-a][1,4]diazepin-6-yl)-N-((2-(2-(2-((3-(2,6-dioxopiperidin-3-yl)-4-oxo-3,4-dihydrophthalazin-5-yl)amino)ethoxy)ethoxy)ethoxy)methyl)acetamide] | 1.6 | 0.242 |  |  |  |  |  |
| Cc1sc2c(c1C)C(c1ccc(Cl)cc1)=N[C@@H](CC(=O)Nc1cccc(OCCOCCOCCNc3cccc4c(C)nn(C5CCC(=O)NC5=O)c(=O)c34)c1)c1nnc(C)n1-2 (stereo partly drawn) [Example 39, 2-((S)-4-(4-chlorophenyl)-2,3,9-trimethyl-6H-thieno[3,2-f][1,2,4]triazolo[4,3-a][1,4]diazepin-6-yl)-N-(3-(2-(2-(2-((3-(2,6-dioxopiperidin-3-yl)-1-methyl-4-oxo-3,4-dihydrophthalazin-5-yl)amino)ethoxy)ethoxy)ethoxy)phenyl)acetamide] |  |  | effectively degraded | 0.000575 | < 0.001 | < 0.25 |  |
| Cc1sc2c(c1C)C(c1ccc(Cl)cc1)=N[C@@H](CC(=O)NCC#Cc1ccc3c(=O)n(C4CCC(=O)NC4=O)ncc3c1)c1nnc(C)n1-2 (stereo partly drawn) [Example 40, 2-((S)-4-(4-chlorophenyl)-2,3,9-trimethyl-6H-thieno[3,2-f][1,2,4]triazolo[4,3-a][1,4]diazepin-6-yl)-N-(3-(2-(2,6-dioxopiperidin-3-yl)-1-oxo-1,2-dihydrophthalazin-6-yl)prop-2-yn-1-yl)acetamide] |  |  | effectively degraded | 0.0109 | 0.227 | < 0.25 |  |
| Cc1sc2c(c1C)C(c1ccc(Cl)cc1)=N[C@@H](CC(=O)Nc1cccc(OCCOCCOCCNc3ccc4c(=O)n(C5CCC(=O)NC5=O)ncc4c3)c1)c1nnc(C)n1-2 (stereo partly drawn) [Example 41, 2-((S)-4-(4-chlorophenyl)-2,3,9-trimethyl-6H-thieno[3,2-f][1,2,4]triazolo[4,3-a][1,4]diazepin-6-yl)-N-(3-(2-(2-(2-((2-(2,6-dioxopiperidin-3-yl)-1-oxo-1,2-dihydrophthaazin-6-yl)amino)ethoxy)ethoxy)ethoxy)phenyl)acetamide] |  |  | effectively degraded | 0.0044 | 0.137 | < 0.25 |  |
| Cc1sc2c(c1C)C(c1ccc(Cl)cc1)=N[C@@H](CC(=O)Nc1cccc(OCCOCCOCCNc3ccc4cnn(C5CCC(=O)NC5=O)c(=O)c4c3)c1)c1nnc(C)n1-2 (stereo partly drawn) [Example 42, 2-((S)-4-(4-chlorophenyl)-2,3,9-trimethyl-6H-thieno[3,2-f][1,2,4]triazolo[4,3-a][1,4]diazepin-6-yl)-N-(3-(2-(2-(2-((3-(2,6-dioxopiperidin-3-yl)-4-oxo-3,4-dihydrophthalazin-6-yl)amino)ethoxy)ethoxy)ethoxy)phenyl)acetamide] |  |  | effectively degraded | 0.0107 | 0.0203 | < 0.25 |  |
| Cc1sc2c(c1C)C(c1ccc(Cl)cc1)=N[C@@H](CC(=O)NCCNc1cccc3cnn(C4CCC(=O)NC4=O)c(=O)c13)c1nnc(C)n1-2 (stereo partly drawn) [Example 43, 2-((S)-4-(4-chlorophenyl)-2,3,9-trimethyl-6H-thieno[3,2-f][1,2,4]triazolo[4,3-a][1,4]diazepin-6-yl)-N-(2-((3-(2,6-dioxopiperidin-3-yl)-4-oxo-3,4-dihydrophthalazin-5-yl)amino)ethyl)acetamide] |  |  |  | 0.185 | > 1 |  |  |
| Cc1sc2c(c1C)C(c1ccc(Cl)cc1)=N[C@@H](CC(=O)NCCNc1cccc3c(=O)n(C4CCC(=O)NC4=O)ncc13)c1nnc(C)n1-2 (stereo partly drawn) [Example 44, 2-((S)-4-(4-chlorophenyl)-2,3,9-trimethyl-6H-thieno[3,2-f][1,2,4]triazolo[4,3-a][1,4]diazepin-6-yl)-N-(2-((2-(2,6-dioxopiperidin-3-yl)-1-oxo-1,2-dihydrophthalazin-5-yl)amino)ethyl)acetamide] |  |  |  | 0.93 | > 1 |  |  |
| Cc1sc2c(c1C)C(c1ccc(Cl)cc1)=N[C@@H](CC(=O)NCCOc1cccc3cnn(C4CCC(=O)NC4=O)c(=O)c13)c1nnc(C)n1-2 (stereo partly drawn) [Example 45, 2-((S)-4-(4-chlorophenyl)-2,3,9-trimethyl-6H-thieno[3,2-f][1,2,4]triazolo[4,3-a][1,4]diazepin-6-yl)-N-(2-((3-(2,6-dioxopiperidin-3-yl)-4-oxo-3,4-dihydrophthalazin-5-yl)oxy)ethyl)acetamide] |  |  |  | 0.108 | > 1 |  |  |
| Cc1sc2c(c1C)C(c1ccc(Cl)cc1)=N[C@@H](CC(=O)NCCN1CCN(c3ccc4c(=O)n(C5CCC(=O)NC5=O)ncc4c3)CC1)c1nnc(C)n1-2 (stereo partly drawn) [Example 48, 2-((S)-4-(4-chlorophenyl)-2,3,9-trimethyl-6H-thieno[3,2-f][1,2,4]triazolo[4,3-a][1,4]diazepin-6-yl)-N-(2-(4-(2-(2,6-dioxopiperidin-3-yl)-1-oxo-1,2-dihydrophthalazin-6-yl)piperazin-1-yl)ethyl)acetamide] |  |  | effectively degraded | 0.0059 | 0.00215 | < 0.25 |  |
| Cc1sc2c(c1C)C(c1ccc(Cl)cc1)=N[C@@H](CC(=O)NCCN1CCN(c3ccc4cnn(C5CCC(=O)NC5=O)c(=O)c4c3)CC1)c1nnc(C)n1-2 (stereo partly drawn) [Example 49, 2-((S)-4-(4-chlorophenyl)-2,3,9-trimethyl-6H-thieno[3,2-f][1,2,4]triazolo[4,3-a][1,4]diazepin-6-yl)-N-(2-(4-(3-(2,6-dioxopiperidin-3-yl)-4-oxo-3,4-dihydrophthalazin-6-yl)piperazin-1-yl)ethyl)acetamide] |  |  | effectively degraded | 0.0407 | 0.0306 | < 0.25 |  |
| N-(4-(2-(2,6-dioxopiperidin-3-yl)-1-oxo-1,2-dihydrophthalazin-6-yl)butyl)-2-((S)-2,3,9-trimethyl-4-phenyl-6H-thieno[3,2-f][1,2,4]triazolo[4,3-a][1,4]diazepin-6-yl)acetamide [Example 47] |  |  |  | 0.0523 |  |  | 0.754 |
